Data published in US20030134859A1 (SANKYO COMPANY, LIMITED, priority 2000, published 2003).

How the values were obtained:
human PPAR γ 2 [1] = biological target: T1, human PPAR γ 2 (Homo sapiens, UniProt P37231); assay: PPAR γ transcriptional activity, luciferase reporter, test compound alone; assay type: cell-based; details: concentration indicating Emax/2, MG63 cells transfected with pSG5-hPPARg and pGV-P2-PPRE, 24 hr
T1 construct: expressed in transfected cells; host or cells: human osteosarcoma MG63, transiently co-transfected with pSG5-hPPARg and the reporter pGV-P2-PPRE
T1 sequence (P37231 1-505): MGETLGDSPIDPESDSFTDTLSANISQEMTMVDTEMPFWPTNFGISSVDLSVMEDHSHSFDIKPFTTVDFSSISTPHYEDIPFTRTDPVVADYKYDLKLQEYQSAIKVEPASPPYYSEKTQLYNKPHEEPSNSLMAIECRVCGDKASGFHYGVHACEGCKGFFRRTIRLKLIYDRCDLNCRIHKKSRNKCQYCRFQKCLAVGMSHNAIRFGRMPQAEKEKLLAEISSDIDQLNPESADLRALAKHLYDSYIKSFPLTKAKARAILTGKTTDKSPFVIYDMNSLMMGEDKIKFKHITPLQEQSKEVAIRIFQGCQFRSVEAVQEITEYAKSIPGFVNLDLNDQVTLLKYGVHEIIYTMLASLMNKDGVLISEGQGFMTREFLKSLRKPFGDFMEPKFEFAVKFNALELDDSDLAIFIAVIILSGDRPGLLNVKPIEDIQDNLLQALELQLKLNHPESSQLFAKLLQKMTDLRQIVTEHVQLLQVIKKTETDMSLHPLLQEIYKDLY
Method in brief: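 Human osteosarcoma MG63 cells transiently co-transfected with human PPARγ2 expression plasmid and PPRE-luciferase reporter (rat acyl-CoA oxidase promoter element), then exposed 24 h to test compound alone. Luciferase luminescence gave dose-response curves; EC50 is the concentration giving half of the compound's maximal activity (Emax).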

human PPAR γ 2 [2] = biological target: T1, human PPAR γ 2; assay: Inhibitory activity against PPAR γ transcription in the presence of agonist compound A, luciferase reporter; assay type: cell-based; details: in the presence of 10 nM compound A (agonist); MG63 cells transfected with pSG5-hPPARg and pGV-P2-PPRE; 24 hr

SMILES	EC50 (human PPAR γ 2 [1]) [nM]	IC50 (human PPAR γ 2 [2]) [nM]
O=C(Nc1ccc(S(=O)(=O)Nc2nccs2)cc1)c1cc([N+](=O)[O-])ccc1Cl [Example 96, N-[4-(Thiazol-2-yl)aminosulfonyl]phenyl-(2-chloro-5-nitrophenyl)carboxamide]	22	650
Cc1cc(NS(=O)(=O)c2ccc(NC(=O)c3cc([N+](=O)[O-])ccc3Cl)cc2)no1 [Example 99]	34	680
O=C(Nc1ccc(S(=O)(=O)Nc2ccc(Cl)nn2)cc1)c1cc([N+](=O)[O-])ccc1Cl [Example 102, N-[4-[(6-Chloropyridazin-3-yl)aminosulfonyl]phenyl]-(2-chloro-5-nitrophenyl)carboxamide]	43	490
COc1cnc(NS(=O)(=O)c2ccc(NC(=O)c3cc([N+](=O)[O-])ccc3Cl)cc2)nc1 [Example 105, N-[4-[(5-Methoxypyrimidin-2-yl)aminosulfonyl]phenyl]-(2-chloro-5-nitrophenyl)carboxamide]	87	710
N=C(N)NS(=O)(=O)c1ccc(NC(=O)c2cc([N+](=O)[O-])ccc2Cl)cc1 [Example 106, N-[4-(Amidinoaminosulfonyl)phenyl]-(2-chloro-5-nitrophenyl)carboxamide]	49	360
O=C(Nc1ccc(S(=O)(=O)Nc2ccnn2-c2ccccc2)cc1)c1cc([N+](=O)[O-])ccc1Cl [Example 108, N-[4-[(2-Phenyl-(2H)-pyrazol-3-yl)aminosulfonyl]phenyl]-(2-chloro-5-nitrophenyl)carboxamide]	57	59
O=C(Nc1nnc(-c2ccccc2)s1)c1cc([N+](=O)[O-])ccc1Cl [Example 110, N-(5-Phenyl-[1,3,4]thiadiazol-2-yl)-(2-chloro-5—nitrophenyl)carboxamide]	15	190
O=C(Nc1nc(-c2ccc(F)c(F)c2)cs1)c1cc([N+](=O)[O-])ccc1Cl [Example 111, N-[4-(3,4-Difluorophenyl)thiazol-2-yl]-(2-chloro-5-nitrophenyl)carboxamide]	79	27
Cc1ccc(S(=O)(=O)Nc2ccc(NC(=O)c3cc([N+](=O)[O-])ccc3Cl)cc2)cc1 [Example 116, N-[4-(4-Toluenesulfonylamino)phenyl]-(2-chloro-5-nitrophenyl)carboxamide]	11	55
CC(=O)Nc1ccc(NC(=O)c2cc([N+](=O)[O-])ccc2Cl)cc1 [Example 117, N-(4-Acetylaminophenyl)-(2-chloro-5-nitrophenyl)carboxamide]	8.7	120
O=C(Nc1ccc(NC(=O)c2cc([N+](=O)[O-])ccc2Cl)cc1)c1ccccc1 [Example 119, N-(4-Benzoylaminophenyl)-(2-chloro-5-nitrophenyl)carboxamide]	21	36
O=C(Nc1ccc(NC(=O)c2cc([N+](=O)[O-])ccc2Cl)cc1)c1ccncc1 [Example 125, N-[4-(Pyridin-4-ylcarbonylamino)phenyl]-(2-chloro-5-nitrophenyl)carboxamide]	19	240
CCCCCCN(CCCCCC)c1ccc(NC(=O)c2cc([N+](=O)[O-])ccc2Cl)cc1 [Example 138, N-[4-(N,N-di-n-Hexylamino)phenyl]-(2-chloro-5-nitrophenyl)carboxamide]	130	20
CC(C)(C)c1cc(C(=O)Nc2ccc(NC(=O)c3cc([N+](=O)[O-])ccc3Cl)cc2)cc(C(C)(C)C)c1O [Example 157, N-[4-[(3,5-di-tert-Butyl-4-hydroxybenzoyl)amino]phenyl]-(2-chloro-5-nitrophenyl)carboxamide]	760	23
CN(C)c1cccc(NC(=O)c2cc([N+](=O)[O-])ccc2Cl)c1 [Example 176, N-(3-Dimethylamino)phenyl-(2-chloro-5-nitrophenyl)carboxamide]	11	66
O=C(Nc1ccc(S(=O)(=O)Nc2cccnc2)cc1)c1cc([N+](=O)[O-])ccc1Cl [Example 178]	16	330
